The source of these data is PubChem BioAssay (NCI).

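Results reflect a 48-hour exposure of cells in 96-well plates to compound at five concentrations. Abbreviation: GI50, concentration required for 50% inhibition of growth. Definition used: TGI = concentration required for complete inhibition of growth.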 Bounds are passed on as bounds.

Common to all, as to assay: NCI tumour cell line growth inhibition, 48 h
In experiment [1] the test system is HS 578T breast.
The test system of experiment [2] is A498 renal.
Experiment [3] relates to CAKI-1 renal.
In experiment [4] the test system is HL-60(TB) leukemia.
Experiment [5] concerns SF-268 CNS.
For experiment [6], the system named is SK-MEL-5 melanoma.
The test system of experiment [7] is OVCAR-3 ovarian.
Experiment [8] has as its system MOLT-4 leukemia.
In experiment [9] the test system is SN12C renal.
The subject of experiment [10] is HOP-92 NSCLC.
Experiment [11] concerns DU-145 prostate.

Take `Fc1ccc2[nH]cc(-c3nc(-c4c[nH]c5ncccc45)cs3)c2c1`: in experiment [1], the GI50 was 3.15 µM and the TGI was greater than 100 µM. Besides, in experiment [2], the GI50 is 2.07 µM and the TGI is greater than 100 µM.
With `O=[N+]([O-])c1nc(-c2ccccn2)[nH]c1[N+](=O)[O-]`, the TGI in experiment [3], in experiment [4], in [5], in experiment [6], in experiment [7] and in [2] was greater than 100 µM each time. Also, the TGI in [8], in [9] and in experiment [10] was greater than 100 µM each time.
Consider `COC1=C2CC(C)CC(OC)C(O)C(C)/C=C(\C)C(OC(N)=O)C(OC)/C=C\C=C(/C)C(=O)NC(=C(C=NC(C)(C)C)C1=O)C2=O` (stereo not drawn), for which the TGI came out at 23.7 µM in experiment [3]; 1.86 µM in experiment [4]; 37.4 µM in experiment [5]; 15.4 µM in experiment [6]; 13.2 µM in experiment [7]; 23.6 µM in [2]. Further, the TGI in experiment [8] turned out to be 12.1 µM; in experiment [9] it was 21 µM; in [10] it was 1.35 µM.
As for `Nc1ncnc2c1ncn2C1OC(COP(=O)(O)O)C(O)C1O` (stereo not drawn), the TGI in [3], in experiment [4], in experiment [5], in [6], in [7] and in experiment [2] was greater than 50 µM in each case. For the same compound, the TGI in [8] is greater than 50 µM; in [9] it was greater than 50 µM; in experiment [10], greater than 46.6 µM.
As for `O=C1OC(c2ccccc2)=N/C1=C\c1cccnc1`, the TGI in [1], in experiment [4], in [5], in experiment [6], in experiment [7] and in [8] was greater than 100 µM each time. In experiment [10], the TGI was greater than 100 µM.
Consider `CCOC(=O)NC(Nc1ncccn1)(C(F)(F)F)C(F)(F)F`, for which the TGI in experiment [1], in experiment [11], in [4], in experiment [5], in [7] and in experiment [2] was greater than 100 µM throughout. In addition, the TGI in experiment [8] and in [9] was greater than 100 µM each time.
On to `CC(=O)OC1C(C)OC(Oc2c(C)c3c4c(c2O)[C@@H](C)CC[C@@H]4[C@@H](C)C[C@H]3C=C(C)C)C(O)C1O` (stereo partly drawn), for which the GI50 in experiment [3] was 1.87 µM; in experiment [1], 2.43 µM; in experiment [5], 16 µM; in [6] it was 2.49 µM; in [7] it was 1.7 µM; in experiment [2], 4.43 µM. Moreover, the GI50 in [8] was 2.23 µM; in [10] it was 3.73 µM. Also, the TGI in [3] amounted to 3.74 µM; in experiment [1] it was 5.51 µM; in [5], 55.3 µM; in [6], 5.39 µM; in experiment [7] it was 3.33 µM; in [2], 14.7 µM. Besides, the TGI is greater than 100 µM in experiment [8] and 9.56 µM in experiment [10].
In the case of `N/C(=N\N=C/c1ccccc1O)NO`, the TGI is 24 µM in experiment [3]; greater than 36 µM in [4]; 90.5 µM in experiment [5]; greater than 100 µM in experiment [6]; greater than 100 µM in experiment [7]; 44.4 µM in experiment [2]. Besides, the values for the TGI in [8], in experiment [9] and in experiment [10] were greater than 70.2 µM, greater than 100 µM and greater than 67.6 µM, respectively.
`CCS(=O)(=O)N1CCC(C(C)n2c(C)c(C(=O)NCc3c(OC)cc(C)[nH]c3=O)c3ccccc32)CC1` (stereo not drawn): the GI50 in [3], in [1], in experiment [11], in experiment [5], in experiment [6] and in experiment [7] was greater than 100 µM in each case. Further, the GI50 in experiment [2] was greater than 100 µM. Besides, the TGI in [3], in experiment [1], in experiment [11], in [5], in experiment [6] and in experiment [7] was greater than 100 µM each time. Also, in experiment [2], the TGI was greater than 100 µM.
For the compound `O=C1OC[C@@H]2[C@@H](O)CCCCCN12`, the TGI in experiment [3], in [1], in [11], in experiment [4], in experiment [6] and in experiment [7] was greater than 100 µM each time. Besides, the TGI in experiment [2], in [8], in [9] and in [10] was greater than 100 µM in each case.
As for `COc1cc2c(cc1OC)-c1cc3ccccc3c[n+]1CC2`, the TGI in experiment [3] is greater than 100 µM; in [1] it was 94.7 µM; in experiment [11] it was greater than 100 µM; in experiment [5], greater than 100 µM; in [6], greater than 100 µM; in experiment [7], greater than 100 µM. Further, the TGI in experiment [8], in experiment [9] and in experiment [10] was greater than 100 µM each time.
Consider `CC1(C)CC23C4COC(=O)C2CCC1C3CC4=O` (stereo not drawn), for which the TGI in [3] is 43 µM; in experiment [4] it was 12.6 µM; in [5] it was 50.9 µM; in [6] it was 32.7 µM; in experiment [7], 27.7 µM; in [2], 13.8 µM. Also, the TGI in experiment [8] came out at 63.2 µM; in experiment [9], 42.5 µM; in experiment [10], 29.3 µM.
